Experimental findings from patent US6399629B1, “Efflux pump inhibitors” (priority 1998, dated 2002) are described below.

This assay has as its system Pseudomonas aeruginosa PAM1001. The assay is described as follows: checkerboard assay (broth microdilution): levofloxacin MIC in presence of efflux pump inhibitor. In kind it is cell-based. Here is the method:
For compounds labeled with the prefix ‘M’, potentiation effect is observed by the reduction of the minimum inhibitory concentration of levofloxacin in the presence of the experimental efflux pump inhibitor. The activity of efflux pump inhibitors (EPI) in combination with fluoroquinolones, such as levofloxacin, is assessed by the checkerboard assay (Antimicrobial Combinations. In Antibiotics in Laboratory Medicine, Ed. Victor Lorian, M.D., Fourth edition, 1996, pp 333-338) using broth microdilution method performed as recommended by the National Committee for Clinical Laboratory Standards (1997). Methods for Dilution of Antimicrobial Susceptibility Tests for Bacteria That Grow Aerobically—Fourth Edition; Approved Standard. NCCLS Document M7-A4, Vol 17 No.2). The test organism used is Pseudomonas aeruginosa PAM1001. […] The compounds tabulated below are representative of the described invention.
In these assays, multiple dilutions of two drugs, namely the EPI and levofloxacin, are being tested, alone and in combination, at concentrations equal to, above and below their respective minimal inhibitory concentrations (MICs). In the case of EPI, most of these compounds are devoid of intrinsic antimicrobial activity and are tested up to the maximum concentration of 40 μg/mL. The MIC of levofloxacin against P. aeruginosa PAM1001 is 4 μg/mL.
The EPI tested are readily soluble in water and stock solutions are prepared at a final concentration of 2 mg/mL. Stock solutions are further diluted, according to the needs of a particular assay, in Mueller Hinton Broth (MHB). Stock solution can be stored at −80° C. Quinolones are solubilized according to the instructions of the manufacturers, at a concentration of 1 mg/mL. They are then further diluted in MHB. Stock solution can be stored at −80° C.
The checkerboard assay is performed in microtiter plates. Levofloxacin is diluted in the x axis, each column containing a single concentration of levofloxacin. The EPI is diluted in the y axis, each row containing an equal concentration of EPI. The result of these manipulations is that each well of the microtiter plate contains a unique combination of concentrations of the two agents. Each EPI are tested independently.
The assay is performed in MHB with a final bacterial inoculum of 5×10^5 CFU/mL (from an early-log phase culture). Microtiter plates are incubated during 20 h at 35° C. and are read using a microtiter plate reader (Molecular Devices) at 650 nm as well as visual observation using a microtiterplate reading mirror.
A general note: Broth dilution looks for growth in wells or tubes with falling amounts of substance.

The structures appear in SMILES notation.

In the case of `CN(C(=O)[C@@H]1C[C@@H](NC(=O)CN)CN1)[C@H](CCc1ccccc1)C(=O)Nc1cnc2ccccc2c1` [Compound M15, (2S,4R)-4-(2-Aminoacetamido)-N-methyl-N-[(1R)-3-phenyl-1-(3-quinolylcarbamoyl)propyl]-2-pyrrolidiecarboxamide], the “Levofloxacin MIC Against P. aerugiuosa PAM1001 in Presence of Efflux Pump Inhibitor (EPI), Minimum Inhibitory Concentration” value came out at 4 µg/mL (EPI Conc. 0 μg/mL); 4 µg/mL (EPI Conc. 0.625 μg/mL); 4 µg/mL (EPI Conc. 1.25 μg/mL); 4 µg/mL (EPI Conc. 2.5 μg/mL); 4 µg/mL (EPI Conc. 5 μg/ mL); 1 µg/mL (EPI Conc. 10 μg/mL). The “Levofloxacin MIC Against P. aerugiuosa PAM1001 in Presence of Efflux Pump Inhibitor (EPI), Minimum Inhibitory Concentration” value is 0.06 µg/mL (EPI Conc. 20 μg/mL) and 0.015 µg/mL (EPI Conc. 40 μg/mL).

Turning to `NCC(=O)N[C@H]1CN[C@@H](C(=O)N[C@H](Cc2ccc(F)cc2)C(=O)Nc2cnc3ccccc3c2)C1` [Compound M20, (2R,4R)-4-(2-Aminoacetamideo)-N-[(1R)-2-(4-fluorophenyl)-1-(3-quinolylcarbamoyl)ethyl]-2-pyrrolidinecarboxamide], the “Levofloxacin MIC Against P. aerugiuosa PAM1001 in Presence of Efflux Pump Inhibitor (EPI), Minimum Inhibitory Concentration” value runs as follows: (EPI Conc. 0 μg/mL) 4 µg/mL; (EPI Conc. 0.625 μg/mL) 4 µg/mL; (EPI Conc. 1.25 μg/mL) 4 µg/mL; (EPI Conc. 2.5 μg/mL) 4 µg/mL; (EPI Conc. 5 μg/ mL) 2 µg/mL; (EPI Conc. 10 μg/mL) 0.50 µg/mL. Further, the “Levofloxacin MIC Against P. aerugiuosa PAM1001 in Presence of Efflux Pump Inhibitor (EPI), Minimum Inhibitory Concentration” value turned out to be 0.125 µg/mL (EPI Conc. 20 μg/mL) and 0.015 µg/mL (EPI Conc. 40 μg/mL).

On to `NCC(=O)N[C@H]1CN[C@H](C(=O)N[C@H](Cc2ccc(F)cc2)C(=O)Nc2cnc3ccccc3c2)C1` [Compound M21, (2S,4R)-4-(2-Aminoacetamido)-N-[(1R)-2-(4-fluorophenyl)-1-(3-quinolylcarbamoyl)ethyl]-2-pyrrolidnecarboxamide], for which the “Levofloxacin MIC Against P. aerugiuosa PAM1001 in Presence of Efflux Pump Inhibitor (EPI), Minimum Inhibitory Concentration” value (EPI Conc. 0 μg/mL) stood at 4 µg/mL; the “Levofloxacin MIC Against P. aerugiuosa PAM1001 in Presence of Efflux Pump Inhibitor (EPI), Minimum Inhibitory Concentration” value (EPI Conc. 0.625 μg/mL) came out at 4 µg/mL; the “Levofloxacin MIC Against P. aerugiuosa PAM1001 in Presence of Efflux Pump Inhibitor (EPI), Minimum Inhibitory Concentration” value (EPI Conc. 1.25 μg/mL) turned out to be 4 µg/mL; the “Levofloxacin MIC Against P. aerugiuosa PAM1001 in Presence of Efflux Pump Inhibitor (EPI), Minimum Inhibitory Concentration” value (EPI Conc. 2.5 μg/mL) is 2 µg/mL; the “Levofloxacin MIC Against P. aerugiuosa PAM1001 in Presence of Efflux Pump Inhibitor (EPI), Minimum Inhibitory Concentration” value (EPI Conc. 5 μg/ mL) was determined as 2 µg/mL; the “Levofloxacin MIC Against P. aerugiuosa PAM1001 in Presence of Efflux Pump Inhibitor (EPI), Minimum Inhibitory Concentration” value (EPI Conc. 10 μg/mL) is 0.25 µg/mL. The “Levofloxacin MIC Against P. aerugiuosa PAM1001 in Presence of Efflux Pump Inhibitor (EPI), Minimum Inhibitory Concentration” value (EPI Conc. 20 μg/mL) turned out to be 0.06 µg/mL and the “Levofloxacin MIC Against P. aerugiuosa PAM1001 in Presence of Efflux Pump Inhibitor (EPI), Minimum Inhibitory Concentration” value (EPI Conc. 40 μg/mL) is 0.015 µg/mL.

Consider `COc1cc(C)c2ncc(NC(=O)[C@@H](CCc3ccccc3)NC(=O)[C@@H]3C[C@@H](NC(=O)CN)CN3)cc2c1` [Compound M22], for which the “Levofloxacin MIC Against P. aerugiuosa PAM1001 in Presence of Efflux Pump Inhibitor (EPI), Minimum Inhibitory Concentration” value is, setting by setting: (EPI Conc. 0 μg/mL) 4 µg/mL; (EPI Conc. 0.625 μg/mL) 4 µg/mL; (EPI Conc. 1.25 μg/mL) 4 µg/mL; (EPI Conc. 2.5 μg/mL) 4 µg/mL; (EPI Conc. 5 μg/ mL) 4 µg/mL; (EPI Conc. 10 μg/mL) 0.50 µg/mL. The “Levofloxacin MIC Against P. aerugiuosa PAM1001 in Presence of Efflux Pump Inhibitor (EPI), Minimum Inhibitory Concentration” value by setting is: (EPI Conc. 20 μg/mL) 0.03 µg/mL; (EPI Conc. 40 μg/mL) 0.015 µg/mL.

As for `CCc1ccc2ncc(NC(=O)[C@@H](Cc3ccc(O)cc3)NC(=O)[C@H]3C[C@H](CN)CN3)cc2c1` [Compound M25, (2R,4R)-4-(Amiomethyl)-N-[(1R)-2-(4-hydroxyphenyl)-1-(6-ethyl-3-quinolylcarbamoyl)ethyl]-2-pyrrolidinecarboxamide], the “Levofloxacin MIC Against P. aerugiuosa PAM1001 in Presence of Efflux Pump Inhibitor (EPI), Minimum Inhibitory Concentration” value by setting is: (EPI Conc. 0 μg/mL) 4 µg/mL; (EPI Conc. 0.625 μg/mL) 4 µg/mL; (EPI Conc. 1.25 μg/mL) 4 µg/mL; (EPI Conc. 2.5 μg/mL) 4 µg/mL; (EPI Conc. 5 μg/ mL) 4 µg/mL; (EPI Conc. 10 μg/mL) 0.5 µg/mL. Where the note is “EPI Conc. 20 μg/mL”, the “Levofloxacin MIC Against P. aerugiuosa PAM1001 in Presence of Efflux Pump Inhibitor (EPI), Minimum Inhibitory Concentration” value was 0.015 µg/mL.

As for `NC[C@@H]1CN[C@@H](C(=O)N[C@H](CCc2ccccc2)C(=O)Nc2ccc3ncccc3c2)C1` [Compound M29, (2R,4R)-4-(Aminomethyl)-N-[(1R)-3-pheyl-1-(6-quinolylcarbamoyl)propyl]-2-pyrrolidinecarboxamide], the “Levofloxacin MIC Against P. aerugiuosa PAM1001 in Presence of Efflux Pump Inhibitor (EPI), Minimum Inhibitory Concentration” value came out at 4 µg/mL (EPI Conc. 0 μg/mL); 4 µg/mL (EPI Conc. 0.625 μg/mL); 4 µg/mL (EPI Conc. 1.25 μg/mL); 2 µg/mL (EPI Conc. 2.5 μg/mL); 1 µg/mL (EPI Conc. 5 μg/ mL); 0.25 µg/mL (EPI Conc. 10 μg/mL). For the same molecule, the “Levofloxacin MIC Against P. aerugiuosa PAM1001 in Presence of Efflux Pump Inhibitor (EPI), Minimum Inhibitory Concentration” value runs as follows: (EPI Conc. 20 μg/mL) 0.06 µg/mL; (EPI Conc. 40 μg/mL) 0.03 µg/mL.

For the molecule `NC[C@@H]1CN[C@@H](C(=O)N[C@H](CCc2ccccc2)C(=O)Nc2cccc3cccnc23)C1` [Compound M30, (2R,4R)-4-(Aminomethyl)-N-[(1R)-3-pheyl-1-(8-quinolylcarbamoyl)propyl]-2-pyrrolidinecarboxamide], the “Levofloxacin MIC Against P. aerugiuosa PAM1001 in Presence of Efflux Pump Inhibitor (EPI), Minimum Inhibitory Concentration” value was found to be 4 µg/mL (EPI Conc. 0 μg/mL); 4 µg/mL (EPI Conc. 0.625 μg/mL); 4 µg/mL (EPI Conc. 1.25 μg/mL); 4 µg/mL (EPI Conc. 2.5 μg/mL); 4 µg/mL (EPI Conc. 5 μg/ mL); 2 µg/mL (EPI Conc. 10 μg/mL). The “Levofloxacin MIC Against P. aerugiuosa PAM1001 in Presence of Efflux Pump Inhibitor (EPI), Minimum Inhibitory Concentration” value reads like this: (EPI Conc. 20 μg/mL) 0.03 µg/mL; (EPI Conc. 40 μg/mL) 0.015 µg/mL.

In the case of `NC[C@@H]1CN[C@@H](C(=O)N[C@H](Cc2ccc(F)cc2)C(=O)Nc2cnc3ccccc3c2)C1` [Compound M31, (2R,4R)-4-(Aminomethyl)-N-[(1R)-2-(4-fluoropheyl)-1-(3-quinolylcarbamoyl)ethyl]-2-pyrrolidinecarboxamide], the “Levofloxacin MIC Against P. aerugiuosa PAM1001 in Presence of Efflux Pump Inhibitor (EPI), Minimum Inhibitory Concentration” value was 4 µg/mL (EPI Conc. 0 μg/mL); 4 µg/mL (EPI Conc. 0.625 μg/mL); 4 µg/mL (EPI Conc. 1.25 μg/mL); 4 µg/mL (EPI Conc. 2.5 μg/mL); 1 µg/mL (EPI Conc. 5 μg/ mL); 0.25 µg/mL (EPI Conc. 10 μg/mL). The “Levofloxacin MIC Against P. aerugiuosa PAM1001 in Presence of Efflux Pump Inhibitor (EPI), Minimum Inhibitory Concentration” value is, setting by setting: (EPI Conc. 20 μg/mL) 0.03 µg/mL; (EPI Conc. 40 μg/mL) 0.03 µg/mL.
